# What was measured:
# [1] = as reported by Sigma-Aldrich; cited from earlier work
# [2] = Solubility of levothyroxine sodium, effect of pH; assay type: physicochemical
# From the text: To have an acceptable biological pH and to improve the solubility of levothyroxine, the pH preferably is at least about 8, or at least about 9.
# [3] = Solubility in water, effect of levothyroxine sodium particle size; assay type: physicochemical; details: observed after 24 hours
# Procedure: The solubilities of batches of levothyroxine sodium micronized (D99<13 μm) and not micronized (D99<125 μm) were investigated. Preparations with several amounts of active ingredient in a fixed volume of water were observed after 24 hours. In both cases, less than 100 μg of levothyroxine sodium was soluble per ml of water.
# [4] = Solubility in aqueous HPBCD solution, effect of complexing agent and copolymers; assay type: physicochemical
# Procedure: In an aqueous solution of 30% (w/w) HPBCD (Kleptose HPB, Roquette, France), 1000 μg/ml of levothyroxine sodium was dissolved. Applicants have observed that similar levothyroxine sodium solubilities may be achieved at lesser concentrations of HPBCD by adding a copolymer(s), such as, for example, sodium carboxymethyl cellulose (“CMC”), hydroxypropylmethylcellulose 4000 (“HPMC”), and/or povidone 12PF.
# 0.5% w/w of CCM and 15% (w/w) of HPBCD,
# 0.5% w/w of HPMC and 20% (w/w) of HPBCD, or
# 2% w/w of Povidone 12PF and 20% (w/w) of HPBCD.
# [5] = Stability of levothyroxine sodium in aqueous HPBCD solutions with phosphate and carbonate buffers, sealed container; assay type: physicochemical; details: experiments of Table 9
# From the text: Applicants investigated the stability of levothyroxine sodium in aqueous HPBCD solutions with phosphate and carbonate buffers in a sealed container.
# [6] = Stability of levothyroxine sodium in aqueous HPBCD solution with or without stabilizers; assay type: physicochemical; details: experiments of Tables 2-4
# From the text: The stability of levothyroxine sodium in an aqueous solution of HPBCD with or without stabilization was investigated.
compound,measurement,setting,value
"O=S(=O)(O)CCCNC1CCCCC1 [CAPS, N-cyclohexyl-3-aminopropanesulfonic acid]",effective pH range,[1],9.7-11.1
"O=S(=O)(O)CCCCNC1CCCCC1 [CABS, 4-[cyclohexylamino]-1-butanesulfonic acid]",effective pH range,[1],10.0-11.4
"CC(C)(N)CO [AMP, 2-amino-2-methyl-1-propanol]",effective pH range,[1],8.7-10.4
"O=S(=O)(O)CC(O)CNC1CCCCC1 (stereo not shown) [CAPSO, 3-[cyclohexylamino]-2-hydroxy-1-propanesulphonic acid]",effective pH range,[1],8.9-10.3
NCC(=O)O [Glycine],effective pH range,[1],8.8-10.6
same,pKa2,[1],9.78
NCCO [ethanolamine],effective pH range,[1],6.0-12.0
CN [Methylamine],effective pH range,[1],9.5-11.5
N[C@@H](Cc1cc(I)c(Oc2cc(I)c(O)c(I)c2)c(I)c1)C(=O)[O-].[Na+] [levothyroxine sodium],solubility,[2]; pH 7.3,28 µg/mL
same,solubility relative to pH 7.3,[2]; pH 9.4,7 times greater
same,solubility relative to pH 7.3,[2]; pH 10.45,11 times greater
same,levothyroxine sodium soluble per ml of water,[3]; micronized (D99<13 μm),less than 100 μg per ml
same,levothyroxine sodium soluble per ml of water,[3]; not micronized (D99<125 μm),less than 100 μg per ml
same,levothyroxine sodium dissolved,[4]; aqueous solution of 30% (w/w) HPBCD,1000 µg/mL
same,levothyroxine sodium dissolved,"[4]; aqueous solution, 0.5% w/w of CCM and 15% (w/w) of HPBCD",1000 µg/mL
same,levothyroxine sodium dissolved,"[4]; aqueous solution, 0.5% w/w of HPMC and 20% (w/w) of HPBCD",1000 µg/mL
same,levothyroxine sodium dissolved,"[4]; aqueous solution, 2% w/w of Povidone 12PF and 20% (w/w) of HPBCD",1000 µg/mL
same,compatibility with HPBCD in aqueous solution,[5],did not exhibit incompatibility
same,compatibility with HPBCD in aqueous solution,[6],did not exhibit incompatibility

# Reference: US8318712B2, “Concentrated liquid thyroid hormone composition” (Intervet International B.V., priority 2006, dated 2012)
